Assay results reported in article doi:10.1101/2024.05.19.594723v1 (biorxiv, 2024).
Where a name gives a salt, the structure may show the parent alone. Read-outs that look alike come from different tables or passages of the source.

How the values were obtained:
CHIKV nsP1 [1] = molecular target: T1, CHIKV nsP1 (Chikungunya virus strain S27-African prototype, UniProt Q8JUX6); test: biochemical
T1 sequence (Q8JUX6 1-535): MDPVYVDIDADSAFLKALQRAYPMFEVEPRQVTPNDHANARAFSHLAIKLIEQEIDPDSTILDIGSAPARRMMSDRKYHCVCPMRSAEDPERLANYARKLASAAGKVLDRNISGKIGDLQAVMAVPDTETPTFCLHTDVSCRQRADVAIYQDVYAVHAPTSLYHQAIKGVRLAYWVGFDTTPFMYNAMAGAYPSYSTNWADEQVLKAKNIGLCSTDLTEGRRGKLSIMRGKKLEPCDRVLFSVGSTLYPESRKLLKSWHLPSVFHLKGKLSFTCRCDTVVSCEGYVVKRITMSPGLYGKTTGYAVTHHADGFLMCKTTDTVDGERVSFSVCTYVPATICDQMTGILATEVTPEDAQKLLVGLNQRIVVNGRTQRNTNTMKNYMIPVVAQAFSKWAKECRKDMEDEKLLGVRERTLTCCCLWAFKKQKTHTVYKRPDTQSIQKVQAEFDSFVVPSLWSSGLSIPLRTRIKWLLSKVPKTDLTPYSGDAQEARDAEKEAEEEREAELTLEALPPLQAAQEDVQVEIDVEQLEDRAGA

in vitro [2] = details: monkey, vero cells
in vitro [3] = details: hamster, bhk-21 cells
Sindbis virus SINV = test: microbe, parasite or virus in culture; details: BHK-21, read-out: SINV replicon assay IC50 (μM)
Chikungunya virus CHIKV = test: microbe, parasite or virus in culture; details: read-out: Plaque reduction assay IC50 (nM)
CHIKV nsP1 [4] = molecular target: T1, CHIKV nsP1; type: binding

SMILES | Kd (CHIKV nsP1 [1]) [µM] | CC50 at 24 h (in vitro [2]) [µM] | CC50 at 24 h (in vitro [3]) [µM] | IC50 (Sindbis virus SINV) [µM] | IC50 (Chikungunya virus CHIKV) [nM] | Kd (CHIKV nsP1 [4]) [µM]
COc1cc2c3cc1Oc1c(OC)c(OC)cc4c1[C@@H](Cc1cccc(c1)Oc1ccc(c(O)c1)C[C@@H]3N(C)CC2)N(C)CC4 [Berbamine Hydrochloride] | 5.45 ± 0.77 | > 25 | 46 | 1.94 ± 0.97 | < 100 | 
Cc1ccc(C(=O)Nc2ccc(CN3CCN(C)CC3)c(C(F)(F)F)c2)cc1C#Cc1cnc2cccnn12 [Ponatinib] |  | 7.95 | 2.4 | > 1.25 | < 3.9 | ~3.83
CC1(C)CCC(CN2CCN(c3ccc(C(=O)NS(=O)(=O)c4ccc(NCC5CCOCC5)c([N+](=O)[O-])c4)c(Oc4cnc5[nH]ccc5c4)c3)CC2)=C(c2ccc(Cl)cc2)C1 [ABT199/Venetoclax] |  | 5 | > 2.5 | 0.23 ± 0.04 | 3.46 ± 1.31 | ~161
